Source: patent US20120316199A1, “COMPOSITIONS AND METHODS FOR TREATING, CONTROLLING, REDUCING, OR AMELIORATING INFLAMMATORY PAIN” (priority 2011, published 2012)
Where “and” joins values, the source holds several entries; their conditions need not be identical. Equal entries are not always repeated. Entries after “also recorded” stand apart in the source; their conditions may differ.

Tests used:
[1] = test system: PGE2 in the aqueous humor; test: Prostaglandin E2 (PGE2) measurement in aqueous humor, rabbit paracentesis model; assay type: in vivo, Rabbit (New Zealand); settings: for PGE2 in aqueous humor, statistical significance versus CTR: p<0.05; for PGE2 level in aqueous humor, Mean: second paracentesis, group mean
Procedure: (§1) Each rabbit was placed in a restraint device and tagged with the alphanumeric code. The formulations were instilled (50 μl) into the conjunctival sac of both eyes 180, 120, 90 and 30 min before the first paracentesis; then 15, 30, 90 min after the first paracentesis. To perform the first paracentesis the animals were anaesthetized by intravenous injection of 5 mg/kg Zoletil® (Virbac; 2.5 mg/kg tiletamine HCl and 2.5 mg/kg zolazepam HCl) and one drop of local anesthetic (Novesina®, Novartis) was administered to the eye. Anterior chamber paracentesis was performed with a 26 G needle attached to a tuberculin syringe; the needle was introduced into the anterior chamber through the cornea, taking care not to damage the tissues. Two hours after the first paracentesis, the animals were sacrificed with 0.4 ml Tanax® (Intervet International B.V.) and the second paracentesis was performed. About 100 μl of aqueous humor were removed at the second paracentesis. Aqueous humor was immediately split in four aliquots and stored at −80° C. until analysis. Then both eyes were enucleated and the iris-ciliary body was carefully excised, placed in polypropylene tubes, and stored at −80° C. until analysis.
For the quantitative determination of PGE2 in the aqueous humor we used the PGE2 Immunoassay kit (R&D Systems; Cat. No. KGE004; Lot. No. 240010). Eleven microliters or 16 μl of aqueous humor were diluted to 110 μl or 160 μl with the calibrator diluent solution provided with the kit. One hundred microliters of samples and of standards were load into a 96-well plate and recorded in a plate layout. Samples were treated following the assay procedure described in the kit. A microplate reader (GDV, Italy; model DV 990 B/V6) set at 450 nm (wavelength correction at 540 nm) was used for making the calibration and analyzing the samples.
(§2) Pupillary diameter, PGE2, protein, PMN, and MPO were expressed as mean±SEM. Statistical analysis was performed using one way ANOVA followed by a Newman-Keuls post hoc test. Clinical score was expressed as % of eyes and the statistical analysis was performed using Kruskal-Wallis followed by a Dunn post hoc test. P<0.05 was considered statistically significant in both cases. Prism 4 software (GraphPad Software, Inc.) was used for the analysis and graphs.

[2] = test system: COX-2; test: COX-2 protein in IL-1β-induced human conjunctival fibroblasts (Western blot); assay type: cell-based; settings: pretreated 2 h, then IL-1β 24 h; Western blot normalized to GAPDH (FIG. 7)
Procedure: Cells were washed with ice-cold PBS and lysed in cell lysis buffer (62.5 mM Tris-HCl, pH 6.8, 2% sodium dodecyl sulfate (SDS), 10% glycerol). Cells were sonicated, and centrifuged at 12,000 rpm and protein concentration was determined using the Micro BCA protein assay kit. Proteins in aliquots of cell lysate (˜20 μg protein) were separated by SDS-polyacrylamide electrophoresis (SDS-PAGE) on 10% gels and transferred to PVDF membranes. Membranes were blocked with 5% BSA and exposed to mouse anti-COX-2 antibody (Caymen). The blots were washed, and exposed to horseradish peroxidase-conjugated anti-mouse secondary antibody. After washing, blots were incubated in ECL (enhanced chemiluminescence) solutions and chemiluminescent bands were visualized using the Fluor Chem imaging system (AlphaInnotech, San Leandro, Calif.). Blots were then stripped and re-probed for glyceraldehyde 3-phosphate dehydrogenase (GAPDH) (Zymed) antibody as loading controls. The experiment was repeated 3 times. Analysis of Western blot band density for COX-2 and GAPDH in captured digital images was done using the Alpha-Innotech Chemi-Imager software (Alpha Innotech; San Leandro, Calif.). Levels of COX-2 protein were normalized to GAPDH.

[3] = test system: protein concentration in the aqueous humor; test: Protein measurement in aqueous humor, rabbit paracentesis model; assay type: in vivo, Rabbit (New Zealand); settings: for Protein level in aqueous humor, Mean: group mean
Procedure: as §1
For protein concentration determination in the aqueous humor we used the Protein Quantification Kit (Fluka; Cat. No. 77371; Lot. No. 1303129). Five microliters of aqueous humor were diluted to 100 μl with water. Twenty microliters of samples and of standards were load into a 96-well plate and recorded in a plate layout. Samples were treated following the assay procedure described in the kit. A microplate reader (GDV, Italy; model DV 990 B/V6) set at 670 nm was used for making the calibration and analyzing the samples.
as §2

## Cc1ccc2c(NC[C@](O)(CC(C)(C)c3cc(F)cc4c3OCC4)C(F)(F)F)cccc2n1 [BOL-303242-X, mapracorat]
[1]; 0.1% formulation
  PGE2 in aqueous humor, statistical significance versus CTR: statistically significant versus CTR
  PGE2 level in aqueous humor, Mean: 1.452 ng/mL
[1]; 0.5% formulation
  PGE2 in aqueous humor, statistical significance versus CTR: statistically significant versus CTR
  PGE2 level in aqueous humor, Mean: 1.384 ng/mL
[1]; 1% formulation
  PGE2 level in aqueous humor, Mean: 2.168 ng/mL
[2]
  Inhibition of COX-2 production by IL-1β-induced HConF: inhibition of COX-2 production; also recorded: successfully inhibits
[3]; 0.1% formulation, second paracentesis
  Protein level in aqueous humor, Mean: 33.667 mg/mL
[3]; 0.5% formulation, p<0.05
  Protein in aqueous humor, statistical significance vs CTR: statistical significance
[3]; 0.5% formulation, second paracentesis
  Protein level in aqueous humor, Mean: 28.844 mg/mL
[3]; 0.5% formulation, second paracentesis, per eye, listed as BOL
  Protein level in aqueous humor, raw data: 33.98 mg/mL and 33.65 mg/mL and 19.99 mg/mL and 27.11 mg/mL and 19.72 mg/mL and 36.35 mg/mL and 27.71 mg/mL and 32.24 mg/mL
[3]; 1% formulation, p<0.001
  Protein in aqueous humor, statistical significance vs CTR: statistical significance
[3]; 1% formulation, second paracentesis
  Protein level in aqueous humor, Mean: 21.435 mg/mL
